Data reported in paper PMC6803965, “A New Class of β–Pyrrolidino-1,2,3-Triazole Derivatives as β-Adrenergic Receptor Inhibitors: Synthesis, Pharmacological, and Docking Studies” (Molecules, 2019).
Values after ≈ are worked out from the molar mass of the structure shown. Like-named read-outs stand apart in the source and are kept apart here.

Key:
[1] = tested on: Candida albicans; test: Antimicrobial well method, zone of inhibition; type: cell-based; conditions: 1 mg/well
Procedure: (§1) Antimicrobial activity was carried out as described previously. Briefly, 20 mL of sterile Mueller Hinton agar (MHA) was poured in the petri plates and kept for solidification. After solidification, the test cultures were swabbed on the top of the media and kept for 10 min to dry. The required concentration (1 mg/well) of synthesized compounds 5a–l was added to each well and left for 30 min at RT for compound diffusion. Ketoconazole (fungi) and streptomycin (bacteria) used for positive controls. The zone of inhibition was recorded in mm and the experiment was repeated twice.

[2] = tested on: Enterobacter aerogenes; test: Antimicrobial well method, zone of inhibition; type: cell-based; conditions: Klebsiella aerogenes
Procedure: as §1

[3] = tested on: Klebsiella pneumoniae; test: Antimicrobial well method, zone of inhibition; type: cell-based
Procedure: as §1

[4] = tested on: Malassezia pachydermatis; test: Antimicrobial well method, zone of inhibition; type: cell-based
Procedure: as §1

[5] = tested on: Micrococcus luteus; test: Antimicrobial well method, zone of inhibition; type: cell-based
Procedure: as §1

[6] = tested on: Salmonella paratyphi-B; test: Antimicrobial well method, zone of inhibition; type: cell-based
Procedure: as §1

[7] = tested on: Shigella flexneri; test: Antimicrobial well method, zone of inhibition; type: cell-based
Procedure: as §1

[8] = tested on: Staphylococcus aureus-MRSA; test: Antimicrobial well method, zone of inhibition; type: cell-based
Procedure: as §1

[9] = tested on: Staphylococcus aureus; test: Antimicrobial well method, zone of inhibition; type: cell-based
Procedure: as §1

[10] = tested on: Staphylococcus epidermidis; test: Antimicrobial well method, zone of inhibition; type: cell-based
Procedure: as §1

[11] = tested on: Enterobacter aerogenes; test: Minimum inhibitory concentration (MIC); type: cell-based; conditions: Klebsiella aerogenes; Enterobacter aerogenes; read-out: Minimum inhibitory concentration
Procedure: (§2) The MIC experiment was carried out according to the standard reference methods. Briefly, the required concentrations of synthesized compounds 5a–l were dissolved in DMSO (Dimethylsulfoxide) in concentrations of 500 µg/mL, 250 µg/mL, 125 µg/mL, 62.5 µg/mL, 31.25 µg/mL, 15.6 µg/mL, and […]. An inoculum of 100 µL from each well (96-well plate) was inoculated. For the positive control, ketoconazole (fungi) and streptomycin (bacteria) was used. The MIC values for the tested bacteria were identified as the lowest inhibiting concentration of compound on the agar plate in visual growth.

[12] = tested on: Klebsiella pneumoniae; test: Minimum inhibitory concentration (MIC); type: cell-based; conditions: read-out: Minimum inhibitory concentration
Procedure: as §2

[13] = tested on: Micrococcus luteus; test: Minimum inhibitory concentration (MIC); type: cell-based; conditions: read-out: Minimum inhibitory concentration
Procedure: as §2

[14] = tested on: Salmonella paratyphi-B; test: Minimum inhibitory concentration (MIC); type: cell-based
Procedure: as §2

[15] = tested on: Shigella flexneri; test: Minimum inhibitory concentration (MIC); type: cell-based
Procedure: as §2

[16] = tested on: Staphylococcus aureus-MRSA; test: Minimum inhibitory concentration (MIC); type: cell-based; conditions: read-out: Minimum inhibitory concentration
Procedure: as §2

[17] = tested on: Staphylococcus aureus; test: Minimum inhibitory concentration (MIC); type: cell-based; conditions: read-out: Minimum inhibitory concentration
Procedure: as §2

[18] = tested on: Staphylococcus epidermidis; test: Minimum inhibitory concentration (MIC); type: cell-based; conditions: read-out: Minimum inhibitory concentration
Procedure: as §2

[19] = tested on: A549 cells; test: Cytotoxicity, aqueous one solution reagent; type: cell-based; conditions: for IC50: 24 h treatment, read-out: IC50 against A549
Procedure: (§3) The cytotoxic study was carried out as reported previously. Briefly, IMR90, HepG-2, and A549 cells were grown in DMEM (Dulbecco’s Modified Eagle Medium) that contained 10% fetal bovine serum and 1% antibiotics. A total of 15 × 10^3 cells/well were seeded in 96-well plates and incubated under humidified conditions. Cells were treated with varying concentrations of synthesized triazoles for 24 h. After a 24 h treatment, 20 µL aqueous one solution reagent was added to each well and incubated for 3–4 h under a humidified condition. For IMR90 cells, MTT (MTT = 3-(4,5-dimethyl-2-thiazolyl)-2,5-diphenyl-2H-tetrazolium bromide) (5 mg/mL) was added and incubated for 3–4 h in the dark. After incubation, 100 µL of a 10% SDS (Sodium Dodecyl Sulfate) solution (0.01% HCl) was added to each well. The data was taken using an ELISA (enzyme-linked immunosorbent assay) reader at the absorbance of 490 nm for HepG-2 and A549 cells and 570 nm for IMR90 cells. The cell death was calculated using the following formula: Inhibition (%) = ((A − B)/A) × 100 (A—control group, B—treated group).

[20] = tested on: HepG-2 cells; test: Cytotoxicity, aqueous one solution reagent; type: cell-based; conditions: for IC50: read-out: IC50 against HepG-2
Procedure: as §3

[21] = tested on: IMR90 cells; test: Cytotoxicity on normal cells, MTT; type: cell-based; conditions: IMR-90, human normal IMR90 cells, 24 h treatment, read-out: IC50 against IMR90
Procedure: as §3

[22] = tested on: Proteus vulgaris; test: Antimicrobial well method, zone of inhibition; type: cell-based
Procedure: as §1

[23] = tested on: Salmonella typhimurium; test: Antimicrobial well method, zone of inhibition; type: cell-based; conditions: Salmonella enterica
Procedure: as §1

[24] = tested on: Proteus vulgaris; test: Minimum inhibitory concentration (MIC); type: cell-based; conditions: read-out: Minimum inhibitory concentration
Procedure: as §2

[25] = tested on: Salmonella typhimurium; test: Minimum inhibitory concentration (MIC); type: cell-based; conditions: Salmonella enterica, TYPHIMURIUM, read-out: Minimum inhibitory concentration
Procedure: as §2

Row | Structure (SMILES) | zone of inhibition [1] | zone of inhibition at 1 mg/well [2] | zone of inhibition at 1 mg/well [3] | zone of inhibition at 1 mg/well [4] | zone of inhibition at 1 mg/well [5] | zone of inhibition at 1 mg/well [6] | zone of inhibition at 1 mg/well [7] | zone of inhibition at 1 mg/well [8] | zone of inhibition at 1 mg/well [9] | zone of inhibition at 1 mg/well [10] | MIC [11] | MIC [12] | MIC [13] | MIC [14] | MIC [15] | MIC [17] | MIC [18] | also measured
1 | CC(C(c1ccccc1)n1cc(COC(=O)c2ccc(C(C)(C)C)cc2)nn1)N1CCCC1 [5i, (1R,2S)-(1-(1-Phenyl-2-(pyrrolidin-1-yl)propyl)-1H-1,2,3-triazol-4-yl)methyl 4-tert-butyl benzoate] | 12 mm | 14 mm | 12 mm | 10 mm | 16 mm | 12 mm | 14 mm | 14 mm | 16 mm | 11 mm | 250 µg/mL (≈ 560 µM) | 500 µg/mL (≈ 1120 µM) | 125 µg/mL (≈ 280 µM) | 500 µg/mL (≈ 1120 µM) | 250 µg/mL (≈ 560 µM) | 125 µg/mL (≈ 280 µM) | 500 µg/mL (≈ 1120 µM) | MIC ([16]; Staphylococcus aureus-MRSA): 250 µg/mL (≈ 560 µM); cytotoxic / anticancer activity against A549 cells [19]: promising anticancer activity; IC50 ([19]; Homo sapiens): 134 ± 1.05 µM; cytotoxic activity against HepG-2 cells [20]: moderate activity; IC50 ([20]; Homo sapiens, HepG2, 24 h treatment): 197 ± 2.34 µM; IC50 [21]: > 250 µM
2 | CCC(C(=O)OCc1cn(C(c2ccccc2)C(C)N2CCCC2)nn1)c1ccccc1 [5l, (1R,2S)-((1-(1-Phenyl-2-(pyrrolidin-1-yl)propyl)-1H-1,2,3-triazol-4-yl)methyl 2-phenylbutanoate] |  |  |  | 12 mm |  |  |  |  |  |  |  |  |  |  |  |  |  | melting point: 127 to 129 °C
3 | N.N.[Cl][Pt][Cl] [Cisplatin, reference compound] |  |  |  |  |  |  |  |  |  |  |  |  |  |  |  |  |  | IC50 [19]: 16.4 ± 3.19 µM; IC50 ([20]; 24 h treatment): 22.1 ± 3.08 µM
4 | CC(=O)N1CCN(c2ccc(OCC3COC(Cn4ccnc4)(c4ccc(Cl)cc4Cl)O3)cc2)CC1 (stereo not shown) [Ketoconazole, reference compound] | 28 mm |  |  | 26 mm |  |  |  |  |  |  |  |  |  |  |  |  |  | 
5 | [H]/N=C(/N)N[C@H]1[C@H](O)[C@@H](O)[C@H](O[C@@H]2O[C@@H](C)[C@](O)(C=O)[C@H]2O[C@@H]2O[C@@H](CO)[C@H](O)[C@@H](O)[C@@H]2NC)[C@@H](N/C(N)=N\[H])[C@@H]1O [Streptomycin, reference compound] |  | 22 mm | 20 mm |  | 26 mm | 18 mm | 30 mm | 30 mm | 14 mm | 26 mm | 25 µg/mL (≈ 43 µM) | 25 µg/mL (≈ 43 µM) | 6.25 µg/mL (≈ 10.7 µM) | 30 µg/mL (≈ 51.6 µM) | 6.25 µg/mL (≈ 10.7 µM) | 6.25 µg/mL (≈ 10.7 µM) | 25 µg/mL (≈ 43 µM) | zone of inhibition at 1 mg/well [22]: 30 mm; zone of inhibition at 1 mg/well [23]: 24 mm; MIC [24]: 6.25 µg/mL (≈ 10.7 µM); MIC [25]: 6.25 µg/mL (≈ 10.7 µM); MIC ([16]; Staphylococcus, MRSA): 6.25 µg/mL (≈ 10.7 µM)
